Laboratory results published in patent US10626113B2, “Phosphodiesterase inhibitors and uses thereof” (THE TRUSTEES OF COLUMBIA UNIVERSITY IN THE CITY OF NEW YORK, priority 2012, dated 2020).

Key:
[1] = system: hippocampal cGMP levels; test: Hippocampal cGMP assay after foot shock; type: in vivo, mice
Method: The hippocampal samples were extracted and snap frozen in liquid nitrogen. Levels of cGMP were quantitated by Enzyme Immunoassay procedure (Cayman Chemical Company, Item no. 581021) following the manufacturer's guidelines in duplicate. cGMP levels were normalized with the protein concentration calculated using BCA Protein Assay Reagent (Thermo Scientific).
cGMP levels in adult mice after treatment with compound H were measured. In a series of preliminary experiments, foot shock induces an immediate increase in cGMP levels in the hippocampus (FIG. 1). Concentration of cGMP was measured by enzyme immunoassay. Basal represents cGMP levels without foot shock. Values are the mean of duplicate determinations. Error bars show S.E.M. (n=3 per group); *p<0.01; ^‡p=0.033.

[2] = system: APP/PS1 mice; test: Contextual fear conditioning (fear memory); type: in vivo; settings: 3 mg/kg i.p. for 3 weeks
Method: Fear conditioning was assessed as described in B. Gong, O. V. Vitolo, F. Trinchese, S. Liu, M. Shelanski, O. Arancio, Persistent improvement in synaptic and cognitive functions in an Alzheimer mouse model after rolipram treatment, J. Clin. Invest. 114 (2004) 1624-1634; F. Trinchese, S. Liu, F. Battaglia, S. Walter, P. M. Mathews, O. Arancio, Progressive age-related development of Alzheimer-like pathology in APP/PS1 mice, Ann. Neurol. 55 (2004) 801-814; and B. Gong, Z. Cao, P. Zheng, O. V. Vitolo, S. Liu, A. Staniszewski, D. Moolman, H. Zhang, M. Shelanski, O. Arancio, Ubiquitin hydrolase Uch-L1 rescues beta-amyloid-induced decreases in synaptic function and contextual memory, Cell 126 (2006) 775-788; each herein incorporated by reference in its entirety. […] Freezing behavior, defined as the absence of movements except for respiratory excursions, was scored using Freezeview software (Med Associates, St. Albans, Vt.). Contextual fear learning was evaluated 24 hrs after training by measuring freezing responses for 5 min in the same chamber where the mice were trained. Cued fear learning was evaluated 24 hrs after contextual testing. The mice were placed in a novel context for 2 min (pre-CS test), after which they were given a CS for 3 min (CS test), and freezing behavior was measured during the first 30 sec that mimic the CS-US conditioning and the remaining 2.5 min. […]

## COc1ccc(CNc2c3c(nc4ccc(C#N)cc24)CCN(C(C)=O)C3)cc1Cl [Compound H, 2-acetyl-10-[(3-chloro-4-methoxybenzyl)amino]-1,2,3,4-tetrahydrobenzo[b][1,6]naphthyridine-8-carbonitrile]
[1]; 3 mg/kg i.p. 30 min before foot shock, 10 sec after shock
  hippocampal cGMP level: 0.48 ± 0.014 pmol/mg
[1]; 3 mg/kg i.p. 30 min before foot shock, 60 sec after shock
  hippocampal cGMP level: 0.58 ± 0.033 pmol/mg
[1]; 3 mg/kg i.p. 30 min before foot shock, 180 sec after shock
  hippocampal cGMP level: 0.58 ± 0.044 pmol/mg
[1]; 10 mg/Kg i.p. 30 min before foot shock, 10 sec after shock
  hippocampal cGMP level: 0.56 ± 0.033 pmol/mg
[1]; 10 mg/Kg i.p. 30 min before foot shock, 60 sec after shock
  hippocampal cGMP level: 0.70 ± 0.028 pmol/mg
[1]; 10 mg/Kg i.p. 30 min before foot shock, 180 sec after shock
  hippocampal cGMP level: 0.63 ± 0.013 pmol/mg
[2]
  effect on contextual fear memory of WT mice: no effect
